# Test results: ChEMBL document CHEMBL5393453, “Compositions and methods of using the same for treatment of neurodegenerative and mitochondrial disease” (2021)
# The source made the active and inactive calls. No cut-off for these calls is given here.
# Experiments:
# [1] = Cytotoxicity against human HeLa cells expressing YFP parkin in presence of FCCP/oligomycin at 25 uM assessed as maximum cell death by DAPI staining analysis relative to control; assay type: toxicity, cell-based
# [2] = Cytotoxicity against human HeLa cells expressing YFP parkin treated with FCCP/ oligomycin assessed as highest safety dose by DAPI staining analysis; assay type: toxicity, cell-based; details: read-out: Activity
# [3] = Cytotoxicity against human HeLa cells expressing YFP parkin assessed as highest safety dose by DAPI staining analysis; assay type: toxicity, cell-based; details: read-out: Activity
# [4] = system: Primary hippocampal neuron; test: Protection against PFFs induced alpha-synuclein fibril formation in C57BL/6 mouse derived primary hippocampal neurons assessed as reduction in phosphorylated S129 alpha-synuclein monomer level at 0.1 to 25 uM measured after 6 days; assay type: functional, cell-based; details: dose 0.1-25 µM, time 6.0 day
# [5] = system: Primary hippocampal neuron; test: Protection against PFFs induced alpha-synuclein fibril formation in C57BL/6 mouse derived primary hippocampal neurons assessed as reduction in phosphorylated S129 alpha-synuclein level at 0.1 to 25 uM measured after 6 days; assay type: functional, cell-based; details: dose 0.1-25 µM, time 6.0 day
# [6] = system: Primary hippocampal neuron; test: Protection against PFFs induced alpha-synuclein fibril formation in C57BL/6 mouse derived primary hippocampal neurons assessed as reduction in phosphorylated S129 alpha-synuclein (250-12) level at 0.1 to 25 uM measured after 6 days; assay type: functional, cell-based; details: dose 0.1-25 µM, time 6.0 day
# [7] = system: HeLa; test: Induction of mitophagy in human HeLa Mito-Keima/YFP-Parkin cells treated with FCCP/oligomycin measured by FACS analysis; assay type: functional, cell-based
# [8] = system: HeLa; test: Induction of mitophagy in human HeLa Mito-Keima/YFP-Parkin cells treated with FCCP/oligomycin measured by FACS analysis relative to DMSO; assay type: functional
# [9] = Cmax in C57BL/6 mouse at 10 mg/kg, po administered as single dose by mass spectrometry; assay type: ADME, organism-based; design: dose 10 mg/kg, route po; details: in vivo
# [10] = system: HeLa; test: Induction of mitophagy in human HeLa YFP-Parkin cells treated with FCCP/oligomycin assessed as cells with parkin recruited to mitochondria at 60 mins by FACS analysis; assay type: functional, cell-based; details: 1 h
# [11] = AUClast in C57BL/6 mouse at 50 mg/kg, po administered as single dose by mass spectrometry; assay type: ADME, organism-based; design: dose 50 mg/kg, route po; details: in vivo
# [12] = Cmax in C57BL/6 mouse at 50 mg/kg, po administered as single dose by mass spectrometry; assay type: ADME, organism-based; design: dose 50 mg/kg, route po; details: in vivo
# [13] = AUClast in C57BL/6 mouse at 10 mg/kg, po administered as single dose by mass spectrometry; assay type: ADME, organism-based; design: dose 10 mg/kg, route po; details: in vivo
# [14] = system: HeLa; test: Induction of mitophagy in human HeLa Mito-Keima cells treated with FCCP/oligomycin measured by FACS analysis; assay type: functional, cell-based
# [15] = system: Primary hippocampal neuron; test: Protection against PFFs induced alpha-synuclein fibril formation in C57BL/6 mouse derived primary hippocampal neurons assessed as reduction in phosphorylated S129 alpha-synuclein level at 1.56 to 12.5 uM measured after 6 days; assay type: functional, cell-based; details: dose 1.56-12.5 µM, time 6.0 day
# [16] = system: Mus musculus; test: Protection against PFFs induced alpha-synuclein fibril formation in C57BL/6 mouse assessed as reduction in phosphorylated S129 alpha-synuclein (250-12) level at 6.25 to 50 mg/kg, po administered twice daily; assay type: functional, organism-based; details: dose 6.25-50 mg/kg
# [17] = Cmax in C57BL/6 mouse at 25 mg/kg, po administered as single dose by mass spectrometry; assay type: ADME, organism-based; design: dose 25 mg/kg, route po; details: in vivo
# [18] = system: Mus musculus; test: Protection against PFFs induced alpha-synuclein fibril formation in C57BL/6 mouse assessed as reduction in phosphorylated S129 alpha-synuclein level at 6.25 to 50 mg/kg, po administered twice daily; assay type: functional, organism-based; details: dose 6.25-50 mg/kg
# [19] = AUClast in C57BL/6 mouse at 100 mg/kg, po administered as single dose by mass spectrometry; assay type: ADME, organism-based; design: dose 100 mg/kg, route po; details: in vivo
# [20] = system: Mus musculus; test: Protection against PFFs induced alpha-synuclein fibril formation in C57BL/6 mouse assessed as reduction in phosphorylated S129 alpha-synuclein monomer level at 6.25 to 50 mg/kg, po administered twice daily; assay type: functional, organism-based; details: dose 6.25-50 mg/kg
# [21] = system: Mus musculus; test: Protection against kidney fibrosis in cisplatin-challenged C57BL/6 mouse assessed as reduction in Gdf15 expression at 6.25 to 50 mg/kg, po administered once a day for 3 days; assay type: functional, organism-based; details: dose 6.25-50 mg/kg, time 3.0 day
# [22] = system: Mus musculus; test: Protection against kidney fibrosis in cisplatin-challenged C57BL/6 mouse assessed as reduction in Tnfrsf12a expression at 6.25 to 50 mg/kg, po administered once a day for 3 days; assay type: functional, organism-based; details: dose 6.25-50 mg/kg, time 3.0 day
# [23] = system: Mus musculus; test: Protection against kidney fibrosis in cisplatin-challenged C57BL/6 mouse assessed as rescue of KIM-1 at 6.25 to 50 mg/kg, po administered once a day for 3 days; assay type: functional, organism-based; details: dose 6.25-50 mg/kg, time 3.0 day
# [24] = AUClast in C57BL/6 mouse at 25 mg/kg, po administered as single dose by mass spectrometry; assay type: ADME, organism-based; design: dose 25 mg/kg, route po; details: in vivo
# [25] = Cmax in C57BL/6 mouse at 100 mg/kg, po administered as single dose by mass spectrometry; assay type: ADME, organism-based; design: dose 100 mg/kg, route po; details: in vivo
# [26] = Therapy index in human HeLa Mito-Keima/YFP-Parkin cells treated with FCCP/oligomycin assessed as mitophagy safety margin by DAPI staining analysis; assay type: toxicity, cell-based; details: read-out: TI
Structure (SMILES),MNTC [2] [µM],MNTC [3] [µM],fold change (FC) [8],further results
COC1CN([C@@H]2COc3ccccc3[C@H]2Nc2ncnc3[nH]c(C4CC4)cc23)C1,25,25,,Emax at 25 µM [1]: 22.5%
COC1CN([C@@H]2COc3ccccc3[C@H]2Nc2ncnc3[nH]c(C(F)(F)F)cc23)C1,21.4,25,,Activity [4]: Active; Activity [5]: Active; Activity [6]: Active
FC(F)(F)c1cc2c(N[C@H]3c4ccccc4CC[C@@H]3N3CC4(COC4)C3)ncnc2[nH]1,,,,EC50 [7]: 300 nM
"FC(F)(F)c1cc2c(N[C@H]3c4ccccc4CC[C@@H]3N3CC4(CCOCC4)C3)ncnc2[nH]1 (single isomer, unassigned)",,,3.95,
"Fc1ccc2c(c1)CC[C@H](N1CCOCC1)[C@H]2Nc1ncnc2[nH]c(C3CC3)cc12 (single isomer, unassigned)",2.8,25,5.24,
FC(F)(F)c1cc2c(N[C@@H]3c4ccccc4CC[C@H]3N3CCOCC3)ncnc2[nH]1 (racemic),,13.9,9.53,
"c1ccc2c(c1)OC[C@H](C1CCOCC1)[C@H]2Nc1ncnc2[nH]c(C3CC3)cc12 (single isomer, unassigned)",21.5,25,,Activity [4]: Active; Activity [5]: Active; Activity [6]: Active
COC1CN([C@@H]2CCc3ccccc3[C@H]2Nc2ncnc3[nH]c(C(F)(F)F)cc23)C1,,25,,EC50 [7]: 28800 nM
"Fc1ccc2c(c1)CC[C@@H](N1CCOCC1)[C@@H]2Nc1ncnc2[nH]c(C(F)(F)F)cc12 (single isomer, unassigned)",25,25,4.67,
COC1CN([C@H]2CCc3ccccc3[C@@H]2Nc2ncnc3[nH]c(C(F)(F)F)cc23)C1,8.3,8.3,,Activity [4]: Active; Activity [5]: Active; Activity [6]: Active
"FC(F)(F)c1cc2c(NC3CCCc4ccccc43)ncnc2[nH]1 (single isomer, unassigned)",,,4.43,Cmax [9]: 0.49 µM; EC50 [10]: 1740 nM; AUC(0-t) [11]: 30.5 µM·h; Cmax [12]: 6.98 µM; AUC(0-t) [13]: 1.79 µM·h; EC50 [14]: 371 nM; Activity [15]: Active
"FC(F)(F)c1cc2c(N[C@@H]3c4ccccc4CC[C@H]3N3CCOCC3)ncnc2[nH]1 (single isomer, unassigned)",,,7.78,
c1ccc2c(c1)OC[C@H](N1CCOCC1)[C@H]2Nc1ncnc2[nH]c(C3CC3)cc12,25,25,,Activity [16]: Active; Cmax [9]: 0.35 µM; Cmax [17]: 1.15 µM; EC50 [10]: 1150 nM; Activity [18]: Active; AUC(0-t) [19]: 85.6 µM·h; AUC(0-t) [11]: 17.3 µM·h; Activity [4]: Active; Activity [20]: Active; Activity [21]: Active; Activity [22]: Active; Cmax [12]: 9.21 µM; Activity [23]: Active; AUC(0-t) [24]: 1.91 µM·h; Activity [5]: Active; AUC(0-t) [13]: 0.51 µM·h; EC50 [14]: 153 nM; Cmax [25]: 19.4 µM; Activity [6]: Active
"Fc1ccc2c(c1)CC[C@H](N1CCOCC1)[C@H]2Nc1ncnc2[nH]c(C(F)(F)F)cc12 (single isomer, unassigned)",8.3,25,5.11,
"C[C@H]1CN([C@H]2CCc3ccccc3[C@@H]2Nc2ncnc3[nH]c(C(F)(F)F)cc23)CCO1 (single isomer, unassigned)",9.1,25,,Activity [4]: Active; Activity [5]: Active; Activity [6]: Active
CO[C@@H]1CCN([C@H]2COc3ccccc3[C@@H]2Nc2ncnc3[nH]c(C(F)(F)F)cc23)C1,3.4,25,,
"FC(F)(F)c1cc2c(N[C@@H]3c4ccccc4OC[C@H]3C3CCOCC3)ncnc2[nH]1 (single isomer, unassigned)",4.7,25,,
FC(F)(F)c1cc2c(NC3c4ccccc4OCC3N3C[C@H]4COC[C@@H]4C3)ncnc2[nH]1 (some centres undefined),25,25,,
"FC(F)(F)c1cc2c(N[C@H]3c4ccccc4CC[C@@H]3N3C[C@H]4COC[C@H]4C3)ncnc2[nH]1 (single isomer, unassigned)",2.8,25,5.44,
c1ccc2c(c1)CC[C@H](N1C[C@@H]3COC[C@H]3C1)[C@H]2Nc1ncnc2[nH]c(C3CC3)cc12,3,25,,
CO[C@H]1CCN([C@H]2COc3ccccc3[C@@H]2Nc2ncnc3[nH]c(C(F)(F)F)cc23)C1,1.1,25,,
"FC(F)(F)c1cc2c(N[C@H]3c4ccccc4CC[C@@H]3N3CCOCC3)ncnc2[nH]1 (single isomer, unassigned)",,,9.78,selectivity ratio [26]: > 30; Activity [15]: Active
C[C@@H]1CN([C@@H]2COc3ccccc3[C@H]2Nc2ncnc3[nH]c(C4CC4)cc23)C[C@H](C)O1,1.2,25,,
"C[C@@H]1CN([C@H]2COc3ccccc3[C@@H]2Nc2ncnc3[nH]c(C(F)(F)F)cc23)C[C@H](C)O1 (single isomer, unassigned)",7.1,25,,
FC(F)(F)c1cc2c(N[C@@H]3c4ccccc4CC[C@@H]3N3CCOCC3)ncnc2[nH]1,,16.7,,selectivity ratio [26]: < 10
c1ccc2c(c1)CC[C@H](N1CCOCC1)[C@H]2Nc1ncnc2[nH]c(C3CC3)cc12,2.8,25,,
"c1ccc2c(c1)CC[C@@H](N1CCOCC1)[C@@H]2Nc1ncnc2[nH]c(C3CC3)cc12 (single isomer, unassigned)",25,25,,
